Where “and” joins values, the source holds several entries; their conditions need not be identical. Equal values may be shown once. Read-outs that look alike come from different tables or passages of the source.
How the values were obtained:
[1] = parameters: method as in PMID 31437865; conditions: cited from earlier work
intragastric pH = tested on: intragastric pH; parameters: method as in PMID 31437865; conditions: Observed (n = 6), cited from earlier work
CYP2C19 = target: T1, CYP2C19 (Homo sapiens, UniProt P33261); experiment: Intrinsic clearance using recombinant CYPs: CYP2C19; type: in vitro ADME
T1 construct: purchased Corning Life Sciences (Woburn, MA, USA)
Protocol: (§1) The elimination profiles of tegoprazan and M1 were assessed using rCYPs. All the assay procedures were performed according to the manufacturer’s instructions. Master mix (1.399 mL), containing the NADPH-generating system, 3.3 mM of glucose 6-phosphate, PBS buffer, deionized water, and each rCYP (25 pmol/μL of CYP2C8, 2C19, and 2E1 and 50 pmol/μL of CYP3A4, 2C9, and 2D6), was added to a microtube and pre-incubated at 37 °C for 5 min. Next, 1 μM tegoprazan and M1 were added and incubated at 37 °C for 0, 5, 10, 20, 30, 45, and 60 min. A total of 100 μL of the sample, incubated for predefined duration, was transferred to a fresh e-tube. Next, 200 μL of acetonitrile containing tegoprazan-d6 (0.5 μM) was added, vortexed for 5 min, and centrifuged at 16,200× g and 4 °C for 10 min. The concentrations of the remaining tegoprazan and M1 were determined by LC–MS/MS. All experiments were performed in duplicate. CLint,rCYP levels were assessed using the results of the disappearance test. […] The CLint resulting from rCYPs was calculated using Equation (3):(3) CLint,rCYP(μL/min/pmol CYP)=0.693/t1/2×1400/concentration of CYP
(§2) Caco-2 and rCYP samples were quantified using LC-MS/MS (UPLC® I-class coupled with TQ-MS (Waters, Milford, MA, USA). The mobile phase comprised (a) 0.1% formic acid and (b) acetonitrile containing 0.1% formic acid. Gradient elution at a flow rate of 0.3 mL/min was applied. Tegoprazan, M1, and the internal standard (tegoprazan-d6) were optimized in electrospray ionization positive mode. Acetonitrile with 0.1 μM of tegoprazan-d6 was added to the collected Caco-2 or rCYP samples. Then, processed samples were centrifuged at 13,000× g for 20 min. After centrifugation, 100 μL of supernatant was transferred to an LC-MS vial and analyzed using LC-MS/MS. […] The stability of tegoprazan was evaluated, and it satisfied the acceptance criteria (coefficient of variances was within 15%) under variable conditions including reinjection, processed sample stability (PSS), and short-term stability for the stock and sample.

[2] = Clinical PK of single and repeated oral doses of tegoprazan in healthy adult males (literature); type: in vivo, human; conditions: 100 mg once daily; from values of ref 15
CYP3A4 = target: T2, CYP3A4 (Homo sapiens, UniProt P08684); experiment: Intrinsic clearance using recombinant CYPs: CYP3A4; type: in vitro ADME
T2 construct: purchased Corning Life Sciences (Woburn, MA, USA)
Protocol: as §1, §2

porcine H^+/K^+-ATPase = conditions: experimental; read-out: half maximal inhibitory concentration (IC50); cited from earlier work
[3] = Physicochemical properties (solubility, pKa, LogP, BCS class); conditions: from high permeability and low solubility
[4] = PBPK model input parameters predicted in SimCYP or obtained by parameter estimation; conditions: human; initial model value; Vd of the clinical study applied; read-out: Vss
Source text: The tegoprazan and M1 PBPK models were developed using SimCYP® simulator, version 20 (Certara, Princeton, NJ, USA). Compound libraries were incorporated into an in vitro dataset, including the microsomal clearance of tegoprazan and M1. Observed PK parameters were obtained from the aforementioned clinical studies (Table 1 and Table 2).
(§3) The absorption of tegoprazan was applied to the advanced dissolution, absorption, and metabolism (ADAM) model, and the diffusion layer model (DLM) built into SimCYP® was applied to the considered formulation and pH-dependent solubility of tegoprazan. The permeability of tegoprazan was determined by a Caco-2 permeability assay and optimized by parameter estimation. Caco-2 permeability was optimized such that the predicted concentration–time profiles were fitted to clinical study data. The metabolite was generated by the metabolism of the parent drug; therefore, absorption was not considered.
The tissue distribution in the PBPK model was predicted by the distribution model (e.g., Rodger and Rowland method, Poulin and Theil method) and the tissue:plasma partition coefficient (Kp) scalar for specific organ or global values. Predicted systemic distribution was expressed as the volume of distribution in a steady state (Vss). […]

[5] = parameters: method as in PMID 33131095; conditions: 100 mg repeatedly; 10 healthy Chinese subjects; cited from earlier work
[6] = ADAM model prediction of regional absorption, gut metabolism, surface solubility and residence time; parameters: species or system human; conditions: at 30 min after a high-fat meal
Protocol: as §3
Postprandial PK profiles were predicted using an established model. Concentration–time profiles were obtained following a single oral dose (50 mg) of tegoprazan in the fasting state or 30 min after a high-fat diet. The predicted AUClast, Cmax, and Tmax values were compared with those of a previous clinical study.

[7] = weak base; cited from earlier work
[8] = 1 μM, experimental (initial model value)

T1 sequence (P33261 whole entry): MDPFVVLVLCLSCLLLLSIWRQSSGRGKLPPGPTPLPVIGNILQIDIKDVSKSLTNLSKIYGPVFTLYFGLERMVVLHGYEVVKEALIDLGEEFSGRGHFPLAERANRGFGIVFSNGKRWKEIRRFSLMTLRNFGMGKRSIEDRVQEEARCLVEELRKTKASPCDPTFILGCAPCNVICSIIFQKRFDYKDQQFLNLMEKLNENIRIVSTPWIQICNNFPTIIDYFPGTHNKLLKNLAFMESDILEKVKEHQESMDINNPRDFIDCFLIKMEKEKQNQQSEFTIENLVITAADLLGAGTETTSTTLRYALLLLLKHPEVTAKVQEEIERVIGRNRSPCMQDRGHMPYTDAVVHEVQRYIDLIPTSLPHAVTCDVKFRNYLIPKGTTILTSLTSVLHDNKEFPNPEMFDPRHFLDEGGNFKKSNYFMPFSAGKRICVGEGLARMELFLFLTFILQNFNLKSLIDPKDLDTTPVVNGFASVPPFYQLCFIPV
T2 sequence (P08684 whole entry): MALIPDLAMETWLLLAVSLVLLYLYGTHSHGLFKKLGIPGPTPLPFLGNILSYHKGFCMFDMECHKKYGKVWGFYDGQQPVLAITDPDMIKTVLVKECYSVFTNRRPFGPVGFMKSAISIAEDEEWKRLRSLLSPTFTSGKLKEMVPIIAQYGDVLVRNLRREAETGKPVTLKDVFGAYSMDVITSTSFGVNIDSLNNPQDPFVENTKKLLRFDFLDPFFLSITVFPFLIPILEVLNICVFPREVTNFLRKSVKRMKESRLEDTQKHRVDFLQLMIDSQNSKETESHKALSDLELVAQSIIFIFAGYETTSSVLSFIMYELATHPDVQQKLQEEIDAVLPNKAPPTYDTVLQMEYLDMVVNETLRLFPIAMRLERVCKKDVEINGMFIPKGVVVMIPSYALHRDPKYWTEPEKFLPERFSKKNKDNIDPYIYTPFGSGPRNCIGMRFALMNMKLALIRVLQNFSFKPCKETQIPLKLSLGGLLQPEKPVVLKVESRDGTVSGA

Cc1nc2cc(C(=O)N(C)C)cc(O[C@H]3CCOc4cc(F)cc(F)c43)c2[nH]1 [tegoprazan]
observed Cmax, Day 7 ([1]; 100 mg once daily for 7 days): 0.8452 ± 0.0407 µg/mL
observed Cmax, Day 1 ([1]; 100 mg once daily): 1.4133 ± 0.0247 µg/mL
pH ≥ 4 over 24 h (intragastric pH; 50 mg Single): 48.9%
pH ≥ 4 over 24 h (intragastric pH; 100 mg q.d. for 7 Days, Day 1): 62.3%
pH ≥ 4 over 24 h (intragastric pH; 100 mg q.d. for 7 Days, Day 7): 70.4%
CLint, CYP2C19 (CYP2C19; [8]): 0.61 µL/min/pmol and 0.614 µL/min/pmol
half-life at 1 μM (CYP2C19; human, recombinant CYP2C19, rCYP2C19): 63.2 min
Slope (disappearance) (CYP2C19; rCYP2C19, 1 μM): -0.011
decrease of observed Cmax at Day 7 compared with Day 1 [2]: approximately 40.2%
CLint, CYP3A4 (CYP3A4; [8]): 0.86 µL/min/pmol and 0.855 µL/min/pmol
half-life at 1 μM (CYP3A4; human, recombinant CYP3A4, rCYP3A4): 22.7 min
Slope (disappearance) (CYP3A4; rCYP3A4, 1 μM): -0.031
IC50 (porcine H^+/K^+-ATPase): 0.53 µM
biopharmaceutics classification system (BCS) class [3]: class II
Vd [4]: 1.55 L/kg
AUC and CL on Day 7 compared with Day 1 [5]: did not show a significant difference
Vd/F on Day 7 compared with Day 1 [5]: increased significantly
increase of predicted absorbed fraction in the duodenum, fed vs fasting [6]: approximately 72.7%
increase of predicted mean residence time in the stomach, fed vs fasting [6]: approximately 170.4%
increase of predicted surface solubility in the duodenum, fed vs fasted [6]: 40.3%
increase of predicted surface solubility in the stomach, fed vs fasted [6]: 14.8%
pKa [7]: 5.1
